In patent US10457707B2, “Substituted urea depsipeptide analogs as activators of the CLPP endopeptidase” (priority 2015, dated 2019):
≈ marks a conversion by molar mass, not a printed value. Like-named read-outs stand apart in the source and are kept apart here. *1 amine or outer side, *2 acyl side, *3 side chain or, on linkers, in order; H or OH if unused. Where a SMILES comes first, the peptide text is derived from it. Bridges are numbered along the chain shown (N, C = ends). [ ]: non-standard residue; d: D form. The star is where a group is joined. ξ: configuration not given here. NH(1,3-benzodioxol-5-yl) = c1cc2c(cc1N*)OCO2; Phe(3,5-F2) = N[C@@H](Cc1cc(F)cc(F)c1)C(=O)O; NH(4-OCF3-phenyl) = FC(F)(F)Oc1ccc(N*)cc1; Morpholine(3S-CO) = O=C(O)[C@@H]1COCCN1; Pro(4S-Me) = C[C@@H]1CN[C@H](C(=O)O)C1; NH(4-Cl-2-F-phenyl) = Fc1cc(Cl)ccc1N*; Pro(4R-Me) = C[C@H]1CN[C@H](C(=O)O)C1; NMeaThr = CN[C@H](C(=O)O)[C@H](C)O; Hyp = O=C(O)[C@@H]1C[C@@H](O)CN1; NH(4-Et-phenyl) = CCc1ccc(N*)cc1; NH(4-Me-phenyl) = Cc1ccc(N*)cc1; ξNMeThr = CNC(C(=O)O)[C@@H](C)O; aThr = C[C@H](O)[C@H](N)C(=O)O; Pip = O=C(O)[C@@H]1CCCCN1; NMeA = CN[C@@H](C)C(=O)O; X2 = CN1CCc2ccc(N*)cc21; X8 = c1cc2c(cc1N*)CCO2; X6 = Cc1cc(C)cc(N*)c1; CO = O=C([*:1])[*:2]; ξP = O=C(O)C1CCCN1

Columns and labels:
Type in all cases: cell-based
[1] = system: Enterococcus faecalis, ATCC 33186; test: Minimal inhibitory concentration assay (microbroth dilution)
In short: (§1)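 Paired MICs against USA 300 and its ClpP-inactivated counterpart test whether killing runs through ClpP. All strains: two-fold broth dilutions from 200 μM final, ~10^5 cfu/mL inoculum, overnight at 37 °C in air, lowest growth-free concentration read by eye.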

[2] = Cytotoxicity assay (CellTiter-Glo cell viability, 72 hours); conditions: African green monkey
In short: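 Viability measured by CellTiter-Glo luminescence after 72-hour compound exposure (serial dilutions, DMSO control) of Vero monolayers seeded at 5000 cells/well in 10% FBS DMEM. IC50 values are the range of two biologically independent experiments, each run in duplicate.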

[3] = system: Staphylococcus aureus, USA 300 wherein ClpP is inactivated; test: Minimal inhibitory concentration assay
In short: as §1

[4] = system: Staphylococcus aureus, USA 300; test: Minimal inhibitory concentration assay; conditions: USA300, read-out: Minimal Inhibitory Concentrations S. aureus USA 300
In short: as §1

[5] = Enterococcus faecalis, ATCC33186, read-out: Minimal Inhibitory Concentrations E. faecalis ATCC 33186
[6] = Vero cells, 72 hours, growth inhibition, read-out: Cytotoxicity IC50
[7] = Enterococcus faecalis, ATCC33186; read-out: Minimal Inhibitory Concentrations E. faecalis ATCC 33186

| SMILES | MIC [1, 5] | IC50 at 72 h [2, 6] | Minimal Inhibitory Concentrations S. aureus USA 300 ΔClpP [3] | MIC [4] | MIC [1, 7] | IC50 at 72 h [2] | MIC ([1]; E. faecalis ATCC 33186; read-out: Minimal Inhibitory Concentrations E. faecalis ATCC 33186) |
| --- | --- | --- | --- | --- | --- | --- | --- |
| C[C@@H]1C[C@H]2C(=O)O[C@@H](C)[C@H](NC(=O)[C@H](Cc3cc(F)cc(F)c3)NC(=O)Nc3ccc4c(c3)CCO4)C(=O)N3CCC[C@H]3C(=O)N3CCCC[C@H]3C(=O)N[C@@H](C)C(=O)N2C1 [Compound 305, (S)-3-(3,5-difluorophenyl)-2-(3-(2,3-dihydrobenzofuran-5-yl)ureido)-N-((2R,6S,8aS,14aS,20S,21S,23aS)-2,6,21-trimethyl-5,8,14,19,23-pentaoxooctadecahydro-1H,5H,14H,19H-pyrido[2,1-i]dipyrrolo[2,1-c:2′,1′-l][1]oxa[4,7,10,13]tetraazacyclo-hexadecin-20-yl)propanamide] ({X8-CO}-[Phe(3,5-F2)][aThr]P[Pip]A[Pro(4R-Me)]; ester 2-C) | 0.029 µM (≈ 0.0242 µg/mL) | 39 ± 2.7 µM | >20 µM | 0.24 µM (≈ 0.201 µg/mL) |  |  |  |
| C[C@@H]1C[C@H]2C(=O)O[C@@H](C)[C@H](NC(=O)[C@H](Cc3cc(F)cc(F)c3)NC(=O)Nc3ccc4c(c3)N(C)CC4)C(=O)N3CCC[C@H]3C(=O)N3CCCC[C@H]3C(=O)N[C@@H](C)C(=O)N2C1 [Compound 321, (S)-3-(3,5-difluorophenyl)-2-(3-(1-methylindolin-6-yl)ureido)-N-((2R,6S,8aS,14aS,20S,21S,23aS)-2,6,21-trimethyl-5,8,14,19,23-pentaoxooctadecahydro-1H,5H,14H,19H-pyrido[2,1-i]dipyrrolo[2,1-c:2′,1′-l][1]oxa[4,7,10,13]tetraazacyclo-hexadecin-20-yl)propanamide] ({X2-CO}-[Phe(3,5-F2)][aThr]P[Pip]A[Pro(4R-Me)]; ester 2-C) | 0.078 µM (≈ 0.0662 µg/mL) | 1.39 ± 0.1 µM | <0.098 µM | < 0.098 µM |  |  |  |
| C[C@@H]1C[C@H]2C(=O)O[C@@H](C)[C@H](NC(=O)[C@H](Cc3cc(F)cc(F)c3)NC(=O)Nc3ccc(Cl)cc3F)C(=O)N3C[C@H](O)C[C@H]3C(=O)N3CCCC[C@H]3C(=O)N[C@@H](C)C(=O)N2C1 [Compound 329, (S)-2-(3-(4-chloro-2-fluorophenyl)ureido)-3-(3,5-difluorophenyl)-N-((2R,6S,8aS,14aS,16R,20S,21S,23aS)-16-hydroxy-2,6,21-trimethyl-5,8,14,19,23-pentaoxooctadecahydro-1H,5H,14H,19H-pyrido[2,1-i]dipyrrolo[2,1-c:2′,1′-l][1]oxa[4,7,10,13]tetraazacyclo-hexadecin-20-yl)propanamide] ({NH(4-Cl-2-F-phenyl)-CO}-[Phe(3,5-F2)][aThr][Hyp][Pip]A[Pro(4R-Me)]; ester 2-C) |  |  | 50 µM | 0.039 µM (≈ 0.0336 µg/mL) | 0.039 µM (≈ 0.0336 µg/mL) | 24.5 ± 2.5 µM |  |
| Cc1ccc(NC(=O)N[C@@H](Cc2cc(F)cc(F)c2)C(=O)N[C@@H]2C(=O)N3CCC[C@H]3C(=O)N(C)[C@@H]([C@H](C)O)C(=O)N[C@@H](C)C(=O)N3C[C@@H](C)C[C@H]3C(=O)O[C@H]2C)cc1 [Compound 202, (S)-3-(3,5-difluorophenyl)-N-((2S,6S,9S,11aS,17S,18S,20aS)-9-((S)-1-hydroxyethyl)-2,6,10,18-tetramethyl-5,8,11,16,20-pentaoxohexadecahydro-1H,5H,16H-dipyrrolo[2,1-c:2′,1′-L][1]oxa[4,7,10,13]tetraazacyclohexadecin-17-yl)-2-(3-(p-tolyl)ureido)propanamide] ({NH(4-Me-phenyl)-CO}-[Phe(3,5-F2)][aThr]P[NMeaThr]A[Pro(4S-Me)]; ester 2-C) | 0.049 µM (≈ 0.0398 µg/mL) | 55.7 ± 3.6 µM | 200 µM | 0.195 µM (≈ 0.158 µg/mL) |  |  |  |
| CCc1ccc(NC(=O)N[C@@H](Cc2cc(F)cc(F)c2)C(=O)N[C@@H]2C(=O)N3C[C@H](O)C[C@H]3C(=O)N3CCOC[C@H]3C(=O)N[C@@H](C)C(=O)N3C[C@H](C)C[C@H]3C(=O)O[C@H]2C)cc1 [Compound 320, (S)-3-(3,5-difluorophenyl)-2-(3-(4-ethylphenyl)ureido)-N-((6aS,8R,12S,13S,15aS,17R,21S,23aS)-8-hydroxy-13,17,21-trimethyl-6,11,15,20,23-pentaoxooctadecahydro-6H,11H,15H-[1,4]oxazino[3,4-i]dipyrrolo[2,1-c:2′,1′-l][1]oxa[4,7,10,13]-tetraazacyclohexadecin-12-yl)propanamide] ({NH(4-Et-phenyl)-CO}-[Phe(3,5-F2)][aThr][Hyp][Morpholine(3S-CO)]A[Pro(4R-Me)]; ester 2-C) |  |  | 0.7812 µM | 0.781 µM (≈ 0.656 µg/mL) | 0.078 µM (≈ 0.0655 µg/mL) | > 100 µM |  |
| Cc1cc(C)cc(NC(=O)N[C@@H](Cc2cc(F)cc(F)c2)C(=O)N[C@@H]2C(=O)N3CCC[C@H]3C(=O)N3CCCC[C@H]3C(=O)N[C@@H](C)C(=O)N3C[C@H](C)C[C@H]3C(=O)O[C@H]2C)c1 [Compound 304, (S)-3-(3,5-difluorophenyl)-2-(3-(3,5-dimethylphenyl)ureido)-N-((2R,6S,8aS,14aS,20S,21S,23aS)-2,6,21-trimethyl-5,8,14,19,23-pentaoxooctadecahydro-1H,5H,14H,19H-pyrido[2,1-i]dipyrrolo[2,1-c:2′,1′-l][1]oxa[4,7,10,13]tetraazacyclo-hexadecin-20-yl)propanamide] ({X6-CO}-[Phe(3,5-F2)][aThr]P[Pip]A[Pro(4R-Me)]; ester 2-C) |  |  | >20 µM | 0.079 µM (≈ 0.0649 µg/mL) | 0.029 µM (≈ 0.0238 µg/mL) | 21.3 ± 1.6 µM |  |
| Cc1ccc(NC(=O)N[C@@H](Cc2cc(F)cc(F)c2)C(=O)N[C@H]2COC(=O)[C@@H]3C[C@@H](C)CN3C(=O)[C@H](C)NC(=O)[C@@H]3CCCCN3C(=O)[C@@H]3CCCN3C2=O)cc1C [Compound 207, (S)-3-(3,5-difluorophenyl)-N-((2R,6S,8aS,14aS,20S,23aS)-2,6-dimethyl-5,8,14,19,23-pentaoxooctadecahydro-1H,5H,14H,19H-pyrido[2,1-i]dipyrrolo[2,1-c:2′,1′-l][1]oxa[4,7,10,13]tetraazacyclohexadecin-20-yl)-2-(3-(3,4-dimethylphenyl)ureido)propanamide] | < 0.2 µM | 31.1 ± 5.6 µM |  |  |  |  |  |
| Cc1ccc(NC(=O)N[C@@H](Cc2ccccc2)C(=O)N[C@H]2COC(=O)[C@@H]3C[C@@H](C)CN3C(=O)[C@H](C)NC(=O)[C@@H]3CCCCN3C(=O)[C@@H]3CCCN3C2=O)cc1C [Compound 206, (S)—N-((2R,6S,8aS,14aS,20S,23aS)-2,6-dimethyl-5,8,14,19,23-pentaoxooctadecahydro-1H,5H,14H,19H-pyrido[2,1-i]dipyrrolo[2,1-c:2′,1′-l][1]oxa[4,7,10,13]tetraazacyclohexadecin-20-yl)-2-(3-(3,4-dimethylphenyl)ureido)-3-phenylpropanamide] | < 0.2 µM | 74 ± 7.7 µM |  |  |  |  |  |
| C[C@@H]1C[C@H]2C(=O)OC[C@H](NC(=O)[C@H](Cc3cc(F)cc(F)c3)NC(=O)Nc3ccc4c(c3)OCO4)C(=O)N3C[C@H](O)C[C@H]3C(=O)N3CCOC[C@H]3C(=O)N[C@@H](C)C(=O)N2C1 [Compound 318, (S)-2-(3-(benzo[d][1,3]dioxol-5-yl)ureido)-3-(3,5-difluorophenyl)-N-((6aS,8R,12S,15aS,17R,21S,23aS)-8-hydroxy-17,21-dimethyl-6,11,15,20,23-pentaoxooctadecahydro-6H,11H,15H-[1,4]oxazino[3,4-i]dipyrrolo[2,1-c:2′,1′-l][1]oxa[4,7,10,13]tetraazacyclo-hexadecin-12-yl)propanamide] ({NH(1,3-benzodioxol-5-yl)-CO}-[Phe(3,5-F2)]S[Hyp][Morpholine(3S-CO)]A[Pro(4R-Me)]; ester 2-C) |  |  |  | 100 µM (≈ 84.2 µg/mL) | > 20 µM | > 100 µM |  |
| C[C@@H]1C[C@H]2C(=O)OC[C@H](NC(=O)[C@H](Cc3ccccc3)NC(=O)Nc3ccc(OC(F)(F)F)cc3)C(=O)N3CCC[C@H]3C(=O)N3CCCC[C@H]3C(=O)N[C@@H](C)C(=O)N2C1 [Compound 205] |  |  |  |  |  | 88.3 ± 15.2 µM | 0.02 µM (≈ 0.0166 µg/mL) |
| Cc1ccc(NC(=O)N[C@@H](Cc2cc(F)cc(F)c2)C(=O)N[C@H]2COC(=O)[C@@H]3C[C@@H](C)CN3C(=O)[C@H](C)NC(=O)C([C@@H](C)O)N(C)C(=O)[C@@H]3CCCN3C2=O)cc1 (stereo partly drawn) [Compound 322, (S)-3-(3,5-difluorophenyl)-N-((2R,6S,9R,11aS,17S,20aS)-9-((R)-1-hydroxyethyl)-2,6,10-trimethyl-5,8,11,16,20-pentaoxohexadecahydro-1H,5H,16H-dipyrrolo[2,1-c:2′,1′-l][1]oxa[4,7,10,13]tetraazacyclohexadecin-17-yl)-2-(3-(p-tolyl)ureido)propanamide] ({NH(4-Me-phenyl)-CO}-[Phe(3,5-F2)]SP[ξNMeThr]A[Pro(4R-Me)]; ester 2-C) | > 20 µM | 47.8 ± 3.2 µM | 0.625 µM |  |  |  |  |
| C[C@@H]1NC(=O)[C@H](C)N(C)C(=O)[C@@H]2CCCN2C(=O)[C@@H](NC(=O)[C@H](Cc2ccccc2)NC(=O)Nc2ccc(OC(F)(F)F)cc2)COC(=O)C2CCCN2C1=O (stereo partly drawn) [Compound 213, (2S)-3-phenyl-2-(3-(4-(trifluoromethoxy)phenyl)ureido)-N-((6S,9S,11aS,17S)-6,9,10-trimethyl-5,8,11,16,20-pentaoxohexadecahydro-1H,5H,16H-dipyrrolo[2,1-c:2′,1′-l][1]oxa[4,7,10,13]tetraazacyclohexadecin-17-yl)propanamide] ({NH(4-OCF3-phenyl)-CO}-FSP[NMeA]A[ξP]; ester 2-C) |  |  |  |  | 0.39 µM (≈ 0.307 µg/mL) | 51.8 ± 1 µM |  |
